This is an account of results in patent US20220273813A1, “PHOTOSENSITIZER-CONJUGATED ANTIMICROBIAL CELLULOSE NANOCRYSTALS AND METHODS OF SYNTHESIZING AND USING SAME” (HNU MATERIALS INC., priority 2019, published 2022).

One test relates to E. coli (ATCC25922). Kind of test: Photobactericidal activity, CFU count, E. coli. The following applies: 20 min ambient light (LED); concentration matched to absorption of 8 mg/L CNC-AA.
A further test concerns P. aeruginosa biofilms. Further details: dose or concentration left out as unconfirmed. Conditions: combined with laser irradiation at specific wavelengths; cited from earlier work.

Method for E. coli (ATCC25922): In the experimental set-up, the viability of bacteria as a response to intensity of white light exposure and concentration of disinfectant was monitored. This was carried out by calculating the number of bacterial colonies present in solution before and after exposure.
According to the experimental protocol, a suspension of cells (2.6×10^8 cells/ml ±0.5 log) was treated with either AA, CNC or CNC+AA or CNC-AA or PBS (untreated control) at different concentration (FIGS. 7-9). For each set of conditions, the initial culture was equally divided into two. One part was light treated while the other was kept in the dark. After different time periods (FIGS. 7-9), bactericidal activity was quantified by counting colony forming units (CFU) on agar plates. […] Comparison of the number of CFUs in the treated samples (AA, CNC, CNC+AA and CNC-AA) to untreated (PBS) placed under light, enabled the inventors to quantify the specific photo-bactericidal activity of the test agents. Killing effect was calculated using the following expression (equation 2).
Killing=Log 10(#CFUUntreated)−Log 10(CFUtreated) (2)

As to `CN(C)c1ccc2nc3ccc(N)cc3[s+]c2c1.[Cl-]` [AA, azure A], the “toxicity against E. coli” value in the test with E. coli (ATCC25922) is recorded as “significantly reduced compared to CNC-AA”.

In the case of `CN(C)c1ccc2nc3ccc(=[N+](C)C)cc-3sc2c1` [methylene blue], in the test on P. aeruginosa biofilms, the “concentration necessary to eradicate P. aeruginosa biofilms” value is recorded as 0.01 % wt/wt.
